Laboratory results from US10156560B1, “Locomotive biological machines” (The Board of Trustees of the University of Illinois, priority 2013, dated 2018).
“Also recorded” adds a separate entry of the source.

Legend:
Assay type in all cases: cell-based
C2C12 muscle strips [1] = test: Passive tension force of muscle strips from beam deflection
Source text: Using Euler-Bernoulli linear bending theory, a formula was derived relating the observed hydrogel beam deflection to the muscle-generated passive tension force. Assuming negligible rotation in the beam and a small angle approximation, equating the applied moment M to tension P times the moment arm I from the muscle strip to the beam reduced the second-order differential equation to
[formula] where I is the moment of inertia of the rectangular cross-section and y is the horizontal deflection of the beam. Boundary conditions were applied by assuming zero deflection at ends of the beam (L=0) and maximum deflection δmas at the center (L/2).
[formula] Beam dimensions, moment arm, and maximum deflection were averaged from 3 measurements of each device using the Measure Tool in ImageJ (NIH). Solving for P yielded the relation:
Finite element analysis was then used to model and simulate global displacement of the beam and pillars in response to an applied force; the simulated deflection values differed 18-19% from actual measurements.
To determine an optimal matrix system for engineered muscle functionality, the passive tension forces generated by collagen- and fibrin-based cell-matrix systems were compared. In muscle strips comprising the same number of cells, a significant increase in passive tension in those containing fibrin (629.3±8.2 μN) compared to collagen (534.2±5.8 μN) was observed. Advantageously, fibrin polymerizes relatively quickly when compared to other ECM proteins, and it can undergo large deformations without breaking (Liu et al., 2006, Science 313(5787):634; Janmey et al., 2009, J R Soc Interface 6(30):1-10). […]
This significant increase in force production was likely due to a greater number of differentiated myotubes in muscle strips supplemented with IGF-1. A normalized stress in the muscle strips with IGF-1 was calculated by dividing the passive tension by the cross-sectional area of the tissue, which averaged 1.2±0.04 mm^2 (n=9). […]

C2C12 muscle strips [2] = test: Lifetime of fibrin muscle strip bio-bots (days until fracture)
Procedure: Similarly, the lifetime of fibrin muscle strip bio-bots (i.e. days until fracture of the muscle strip) was affected by the presence or absence of 50 ng/mL IGF-1 and/or 1 mg/mL aminocaproic acid. There was a significant increase in the fibrin muscle strip lifetime with the addition of 1 mg/mL aminocaproic acid (25±1.15 days) compared to the control of 10% HS (8.75±7.63).

C2C12 myoblasts [3] = test: Differentiation, viability (MTS) and proliferation in muscle strips
Procedure: After 7 days, the myoblasts were induced to differentiate by switching to high-glucose DMEM supplemented with 10% horse serum (Lonza) and 50 ng/mL insulin-like growth factor-1 (IGF-1, Sigma). A protease inhibitor, aminocaproic acid (1 mg/mL, Sigma) was added to the growth and differentiation medium to prevent degradation of the extracellular matrix proteins by the cells. Differentiated, multinucleated myotubes were distributed throughout muscle strips supplemented with IGF-1.
An MTS assay was used to evaluate cell viability over time. Muscle strips comprising […] and supplemented with IGF-1 and aminocaproic acid were incubated with MTS (Promega) and phenazine methosulfate (Sigma-Aldrich) in DMEM without phenol red for 4 h at 37° C. Absorbance of MTS formazan product formation was measured at 490 nm using a Synergy HT microplate reader (BioTek) for four different time points and normalized to day 0 (day of cell seeding). The relative absorbance of muscle strips indicated a viability of cells within the muscle strip of 85.76±10.74% and 79.71±14.78% after days 6 and 9, respectively.

C2C12 muscle strips [4] = test: Electrically paced actuation of fibrin-based muscle strips
Procedure: To externally control muscle contraction and bio-bot locomotion, a custom-designed setup (Bajaj et al., 2011, Integr Biol (Camb) 3(9):897-909) was used to stimulate reproducible contraction of excitable cells within the muscle strip with a bipolar electrical pulse train (FIGS. 30A and 30B). The output from a waveform generator was amplified through an AD797 inverting amplifier. A capacitor C was added in series to minimize electrolysis of the media by converting the square pulse to a biphasic pulse; the system was then treated as an RC circuit (FIG. 30B). A 35-mm culture dish was modified to allow Pt electrodes of diameter 0.762 mm to pass through the lid of the dish. The average resistance of the electrical stimulation medium (DMEM without serum) was calculated by measuring the time constant τ from the oscilloscope and dividing by C for each volume at 23° C. and 37° C. The conductivity of the medium was measured using a pH/Conductivity meter (Orion 4-Star, Thermo Scientific), at 23° C. and 37° C. During stimulation, the bio-bot was placed in 4 mL of warm electrical stimulation medium between the positive and ground electrodes, and a current was applied perpendicular to the long axis, with stimulation frequencies up to 10 Hz and never exceeding more than half of the sampling frequency, per the Nyquist criterion. Bio-bots were stimulated with bipolar electrical pulses of 20 V amplitude (21.6 V/cm field strength) and 50 ms pulse width. Simultaneous imaging was achieved by positioning the dish on the stage of a stereoscope. Top-view movies were acquired with a stereomicroscope with a digital microscope camera at 9.2 fps. Side-view movies were acquired using a camcorder (Handycam DCR-SR65, Sony) at 30 fps. Electrodes were sterilized in 70% ethanol and rinsed with PBS between experiments.
Twitch contractions were observed below 8-10 Hz and tetanus above this upper frequency limit.
A Kelvin-Voigt viscoelasticity model that correlated the observed cyclic displacement to the contractile force was used to extract the active tension generated by IGF-1 supplemented muscle strips in response to electrical stimulation. The active stress generated by the muscle strip was computed as a function of the strain ε(t) and strain rate dε(t)/dt observed in the hydrogel beam with viscosity η. The time-varying displacement data was converted into time-varying strain, and the following equation was used to compute the resulting active stress: […]
The range of active tension during contraction decreased with increasing stimulation frequency, from a dynamic fluctuation of 198.68 μN during 1 Hz stimulation to 109.48 μN during 4 Hz stimulation. The active tension data followed a positive force-frequency relationship in which the magnitude of the active tension exerted by the muscle increased, even while the range of pillar motion decreased.

C2C12 myoblasts [5] = test: Compaction and snapping of collagen-based 3D skeletal muscle strips
Procedure: C2C12 myoblasts were transfected with pAAV-Cag-Chr2-GFP-2A-Puro with Lipofectamine 2000 (Invitrogen, Carlsbad, Calif.) and grown under puromycin (2.5 μg/mL) selection for 2 weeks. Before cell seeding, bio-bots were positioned beam-down in polymerized holders in a 35-mm cell culture dish and aspirated of excess liquid. A liquid suspension of C2C12 skeletal muscle myoblasts and ECM proteins was added around the pillars of the bio-bot and polymerized via gelation of the matrix proteins. Embedded cells exerted traction forces on the fibrous proteins via integrin attachments to compact the matrix into a muscle strip over time, and the capped pillars acted as a physical anchor for the muscle strip to mimic the in vivo musculoskeletal arrangement in which force transmission occurs from a contracting muscle to bone through a connecting tendon. The ECM was a mixture of i) type I collagen or fibrin and ii) Matrigel™, a composition of laminin, entactin, and type IV collagen. Collagen and fibrin were chosen because naturally-derived hydrogels undergo macro-scale compaction when mixed with cells, leading to a substantially higher cell density and unidirectional cell alignment between the posts. For collagen strips, a cooled suspension of liquid type I collagen from rat tail (0.8, 1.4, or 2.0 mg/mL, BD Biosciences) was mixed with equal parts ice-cold growth medium and neutralized with 0.01 N NaOH. Pelleted cells (1.0-10.0×10^6 cells/mL) were resuspended in ice-cold growth medium and mixed with Matrigel™ (30% v/v, BD Biosciences). Liquid neutralized type I collagen was mixed thoroughly with cells (C2C12 myoblasts (ATCC)) and Matrigel™, and the mixtures were added to each holder. For fibrin muscle strips, an ice-cold cell-matrix solution of Matrigel™ (30% of total cell-matrix volume), fibrinogen (4 mg/mL, Sigma-Aldrich), thrombin from bovine plasma (0.5 U/mg fibrinogen, Sigma-Aldrich), and C2C12s suspended in GM at a concentration of 5×10^6 cells/mL were added to each holder. The post/beam assemblies were then incubated at 37° C. to induce collagen/fibrin polymerization, and growth medium was added to each assembly upon gelation. Time-lapsed compaction was captured with a stereomicroscope (MZ FL III, Leica).
To confirm that gel compaction was caused by traction forces from the cells, muscle strips were treated with 50 μg/mL blebbistatin (FIG. 27A). Blebbistatin blocks myosin II activity in the cells, which prevents inward translation of the traction forces. […] The muscle strips treated with IGF-1 (50 ng/mL) compacted rapidly but snapped near the posts within 24 h (FIG. 27C). Thus, the formation of muscle strips was cell-induced through passive tension around the two posts. […]

IGF-1: insulin-like growth factor 1, a potent mitogen
increase in passive tension force compared to control without IGF-1 (C2C12 muscle strips [1]; fibrin-based muscle strips): 70.7%
passive tension force (C2C12 muscle strips [1]; fibrin-based muscle strips supplemented with IGF-1): 992.7±34.3 μN
passive stress (C2C12 muscle strips [1]; muscle strips with IGF-1, tension divided by cross-sectional area): 0.84±0.03 kPa
decrease in days until fracture compared to the 1 mg/mL ACA condition (C2C12 muscle strips [2]; 50 ng/mL): 22.0%
decrease in days until fracture compared to the control (C2C12 muscle strips [2]; 50 ng/mL, control 10% HS): 51.43%
portion of the fibrin-based muscle strip occupied by cells (C2C12 myoblasts [3]; 50 ng/mL): more than doubled
cell proliferation compared to control muscle strips (C2C12 myoblasts [3]; day 9): enhanced cell proliferation
range of active tension during contraction (C2C12 muscle strips [4]; 1 Hz stimulation): 198.68 μN
range of active tension during contraction (C2C12 muscle strips [4]; 4 Hz stimulation): 109.48 μN
Output (C2C12 muscle strips [4]; stimulation 1 Hz): 1.01 ± 0.003 Contractions/s
Output (C2C12 muscle strips [4]; stimulation 2 Hz): 2.01 ± 0.01 Contractions/s
Output (C2C12 muscle strips [4]; stimulation 4 Hz): 3.95 ± 0.05 Contractions/s

NCCCCCC(=O)O [aminocaproic acid, ε-aminocaproic acid]
snapping of collagen muscle strip (C2C12 myoblasts [5]; 1 mg/mL in medium): remained intact
time muscle strip remained stable (C2C12 myoblasts [5]; 1 mg/mL in medium): > 14 days
snapping of collagen muscle strip (C2C12 myoblasts [5]; 1 mg/mL in medium, listed as EAC): prevented the muscle strip from snapping
fibrin muscle strip lifetime (days until fracture) (C2C12 muscle strips [2]; 1 mg/mL): 25 ± 1.15 days

Cc1ccc2c(c1)C(=O)C1(O)CCN(c3ccccc3)C1=N2 (centres unmarked) [blebbistatin]
compaction of muscle strip (C2C12 myoblasts [5]; blebbistatin in medium, 48 hours of culture): lack of compaction; also recorded: prevented its compaction
